From US20230129812A1, “COMPOSITIONS AND METHODS FOR TREATING PULMONARY HYPERTENSION” (Acceleron Pharma Inc., priority 2020, published 2023)

Columns and labels:
[1] = tested on: rat model of pulmonary arterial hypertension (PAH), monocrotaline-induced; experiment: Monocrotaline (MCT) rat model of pulmonary arterial hypertension; format: in vivo, Sprague Dawley rats; details: MCT rats; for improvement in body weight: 28 days; for improvement in body weight / decrease of right heart hypertrophy / decrease of lung weight / reduction of elevated PAP: compared to monocrotaline treated rats (vehicle); for decrease of right heart hypertrophy / decrease of lung weight / reduction of elevated PAP: day 28; for decrease of right heart hypertrophy: RV/LV+S; for smooth muscle hypertrophy of pulmonary arterioles, average histopathological score: 0 (normal), 1 (minimal), 2 (mild), 3 (moderate), 4 (marked); for pulmonary arterioles completely muscularized / pulmonary arterioles non-muscularized / pulmonary arterioles partially muscularized: αSMA/elastin staining, 100 arterioles per animal
Protocol: The effects of an ActRIIA-mFc fusion protein (ActRIIA-mFc homodimer as described in Example 1), an ALK4-Fc-ActRIIB-Fc heterodimer (as described in Examples 12 and 13), and sildenafil (a phosphodiesterase-5 inhibitor approved for the treatment of PAH) were examined in a rat model of pulmonary arterial hypertension (PAH). In this model, Sprague Dawley rats received a […] injection of monocrotaline (MCT) to induce PAH 24 hours prior to start of therapy.
Rats were separated into different treatment groups (10 mice per group): 1) treatment with MCT (60 mg/kg administered i.p. as a single dose at day 1 of study) and Tris buffered saline (i.p. as 1 ml/kg, every three days) (vehicle treatment group), 2) treatment with an ActRIIA-mFc polypeptide (10 mg/kg administered i.p. every three days) and MCT (60 mg/kg administered i.p. as a single dose at day 1 of study), 3) treatment with an ALK4-Fc:ActRIIB-Fc heterodimer (10 mg/kg administered i.p. every three days) and MCT (60 mg/kg administered i.p. as a single dose at day 1 of study), 4) treatment with sildenafil (30 mg/kg administered orally twice daily) and MCT (60 mg/kg administered i.p. as a single dose at day 1 of study), and 5) control rats (Tris buffered saline administered i.p. as 1 ml/kg, every three days). Rats were treated for 28 days. Body weights were recorded prior to first dose on Day 1 and then weekly throughout the study.
(§1) On day 28, rats were anesthetized by an intraperitoneal injection of ketamine/xylazine (80/10 mg/kg). An incision was made in the neck, and a jugular vein was isolated and ligated anteriorly. A fluid-filled pressure catheter was introduced into the right jugular vein to measure pulmonary artery pressure (PAP). Another incision was made in the inguinal region, and femoral artery was isolated and ligated anteriorly. A Millar pressure catheter was introduced into a femoral artery to measure systolic arterial pressure, diastolic pressure, and heart rate. Mean arterial pressure and right PAP were monitored using the Notocord HEM (Croissy sur Seine, Frnace) v3.5 data capture system for approximately 5-10 minutes until stable measurements were obtained. During the measurements, rats were maintained at approximately 37° C. on a heating pad and body temperature was monitored throughout the procedure with a rectal temperature probe. At the conclusion of the procedure, rats were euthanized, and the hearts and lungs were removed. The entire heart was weighed. Next, the atria were removed and the left ventricle with septum (LV+S) was separated from the right ventricle (RV). The ventricles were weighed separately. Hypertrophy was assessed, in part, by calculating RV/LV+S. The lungs were also weighed.
(§2) Similar trends were observed on vessel muscularity based on histopathologic scoring. After staining tissue samples to detect αSMA/elastin, 100 pulmonary arterioles, between 10 μm and 50 m in size, per animal were categorized as non-muscularized, partially muscularized, or completely muscularized. Pulmonary arterioles from vehicle treated rats were determined to be 62.3% completely muscularized, 36.4% partially muscularized, and 1.4% non-muscularized. […] Histopathological scoring of smooth muscle hypertrophy of pulmonary arterioles were also recorded as follows: 0 (normal), 1 (minimal), 2 (mild), 3 (moderate), or 4 (marked).

[2] = tested on: Sugen Hypoxia model of PAH; experiment: Sugen Hypoxia rat model of PAH (semaxanib/hypoxia); format: in vivo; details: Sugen Hypoxia rats; for decrease of right heart hypertrophy / reduction of mean pulmonary arterial pressure: day 28, compared to vehicle treated animals; for smooth muscle hypertrophy of pulmonary arterioles, average histopathological score: 0 (normal), 1 (minimal), 2 (mild), 3 (moderate), 4 (marked); for pulmonary arterioles completely muscularized / pulmonary arterioles non-muscularized / pulmonary arterioles partially muscularized: αSMA/elastin staining, 100 arterioles per animal
Protocol: The effects of an ActRIIA-mFc fusion protein (ActRIIA-mFc homodimer as described in Example 1 and sildenafil (a phosphodiesterase-5 inhibitor approved for the treatment of PAH) were further examined the Sugen Hypoxia model of PAH. In this model, rats receive daily doses of semaxanib and are placed in a low oxygen environment (approximately 13% oxygen) to induce PAH 24 hours prior to start of therapy.
Rats were separated into different treatment groups (10 mice per group): 1) treatment with semaxanib (200 mg/kg administered s.c. as a single dose daily)/hypoxia and Tris buffered saline (administered i.p. as 1 ml/kg, every three days) (vehicle treatment group), 2) treatment with an ActRIIA-mFc polypeptide (10 mg/kg administered i.p. every three days) and semaxanib (200 mg/kg administered s.c. as a single dose daily)/hypoxia, 3) treatment with sildenafil (30 mg/kg administered orally twice daily) and semaxanib (200 mg/kg administered s.c. as a single dose daily)/hypoxia, and 4) control rats (Tris buffered saline administered i.p. as 1 ml/kg, every three days). Rats were treated for 28 days. Body weights were recorded prior to first dose on Day 1 and then weekly throughout the study.
as §1
as §2, with “[…]” for “μm”, “72.5%” for “62.3%”, “27.4%” for “36.4%”, “0.1%” for “1.4%”

[3] = tested on: pGL3(CAGA)12 reporter gene expression in A-204 cells; experiment: A-204 reporter gene assay, stimulation by factors without inhibitors; format: cell-based, human; details: in the absence of any inhibitors
From the text: An A-204 reporter gene assay was used to evaluate the effects of ActRIIB-Fc proteins and ActRIIB variant Fc fusion polypeptides on signaling by GDF-11 and activin A. Cell line: human rhabdomyosarcoma (derived from muscle). Reporter vector: pGL3(CAGA)12 (described in Dennler et al, 1998, EMBO 17: 3091-3100). The CAGA12 motif is present in TGF-beta responsive genes (e.g., PAI-1 gene), so this vector is of general use for factors signaling through SMADs.
Day 1: Split A-204 cells into 48-well plate.
Day 2: A-204 cells transfected with 10 ug pGL3(CAGA)12 or pGL3(CAGA)12(10 ug)+pRLCMV (1 pg) and Fugene.
Day 3: Add factors (diluted into medium+0.1% BSA). Inhibitors need to be preincubated with factors for 1 hr before adding to cells. Six hrs later, cells were rinsed with PBS and lysed.
This is followed by a luciferase assay.

GDF11 = target: T1, GDF11 (Homo sapiens, UniProt O95390); experiment: Biacore ligand affinity of ActRIIB-hFc forms, steady-state affinity fit; format: binding
T1 sequence (O95390 299-407): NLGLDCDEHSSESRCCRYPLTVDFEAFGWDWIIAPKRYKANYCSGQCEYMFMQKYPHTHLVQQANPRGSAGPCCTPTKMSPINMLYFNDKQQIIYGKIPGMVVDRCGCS
Protocol: (§3) Affinities of several ligands for ActRIIB(25-131)-hFc and its full-length counterpart ActRIIB(20-134)-hFc were evaluated in vitro with a Biacore™ instrument, and the results are summarized in Table 8 below. Kd values were obtained by steady-state affinity fit due to very rapid association and dissociation of the complex, which prevented accurate determination of kon and koff. ActRIIB(25-131)-hFc bound, for example, activin A, activin B, and GDF11 with high affinity.
(§4) The affinity of ActRIIB variants and other ActRIIB-hFc proteins for several ligands was evaluated in vitro with a Biacore™ instrument. Kd values were obtained by steady-state affinity fit due to the very rapid association and dissociation of the complex, which prevented accurate determination of kon and koff.

activin A = target: T2, activin A (Homo sapiens, UniProt P08476); experiment: as above; format: binding
T2 sequence (P08476 311-426): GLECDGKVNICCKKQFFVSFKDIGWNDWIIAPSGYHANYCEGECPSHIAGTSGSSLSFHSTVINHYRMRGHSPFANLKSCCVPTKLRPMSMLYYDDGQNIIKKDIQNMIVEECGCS
Protocol: as §3, §4

activin B = target: T3, activin B (Homo sapiens, UniProt P09529); experiment: as above; format: binding
T3 sequence (P09529 293-407): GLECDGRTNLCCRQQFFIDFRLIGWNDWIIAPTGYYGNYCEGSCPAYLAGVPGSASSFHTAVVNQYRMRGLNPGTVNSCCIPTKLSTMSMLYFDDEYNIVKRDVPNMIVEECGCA
Protocol: as §3, §4

Row | Molecule | improvement in body weight [1] | decrease of right heart hypertrophy [1] | decrease of lung weight [1] | reduction of elevated PAP [1] | smooth muscle hypertrophy of pulmonary arterioles, average histopathological score [1] | pulmonary arterioles completely muscularized [1] | pulmonary arterioles non-muscularized [1] | pulmonary arterioles partially muscularized [1] | decrease of right heart hypertrophy [2] | reduction of mean pulmonary arterial pressure [2] | smooth muscle hypertrophy of pulmonary arterioles, average histopathological score [2] | pulmonary arterioles completely muscularized [2] | pulmonary arterioles non-muscularized [2] | pulmonary arterioles partially muscularized [2] | ED50 [3] | stimulation of reporter gene expression [3] | other results
1 | CCCc1nn(C)c2c(=O)[nH]c(-c3cc(S(=O)(=O)N4CCN(C)CC4)ccc3OCC)nc12 [sildenafil, reference compound] | did not have any improvement in body weight | 18.5% | 10% | 30% | 3 | 57.9% | 0.9% | 41.6% | 10% | 22.4% | 3 | 67.4% | 1.0% | 31.6% |  |  | 
2 | activin A: TGF-beta superfamily ligand added as factor in the A-204 reporter gene assay |  |  |  |  |  |  |  |  |  |  |  |  |  |  | ~2 ng/mL | 10 fold | 
3 | GDF-11: TGF-beta superfamily ligand added as factor in the A-204 reporter gene assay |  |  |  |  |  |  |  |  |  |  |  |  |  |  | ~1.5 ng/mL | 16 fold | 
4 | ActRIIB(25-131)-hFc: human ActRIIB extracellular domain with N- and C-terminal truncations (residues 25-131) fused to human Fc via three glycines |  |  |  |  |  |  |  |  |  |  |  |  |  |  |  |  | GDF11 binding (GDF11; Biacore): high affinity; Kd (GDF11; Table 12, Kd by steady-state affinity fit, read-out: GDF11 (Kd e−11)): 0.031 nM; activin A binding (activin A; Biacore): high affinity; Kd (activin A; Table 12, Kd by steady-state affinity fit, read-out: Activin A (Kd e−11)): 0.018 nM; activin B binding (activin B; Biacore): high affinity; Kd (activin B; Table 12, Kd by steady-state affinity fit, read-out: Activin B (Kd e−11)): 0.012 nM
5 | ActRIIA-mFc: extracellular domain of human ActRIIa fused to a mouse Fc domain with a minimal linker; homodimer | did not show improvement in body weight | 47.1% | 18.4% | 68% | 1.6 | 25.8% | 7.3% | 66.9% | 53.5% | 51.3% | 1.4 | 29.3% | 1.4% | 69.3% |  |  | 
